Results: patent US9981964B2 (Agency for Science, Technology and Research, priority 2013, dated 2018)
“Also recorded” adds a separate entry of the source. Where two headings read alike, the source gives them in different places.

Assays:
HEK293-STF3A cells = assay: STF3A assay (STF luciferase reporter in Wnt3A-expressing HEK293 cells); type: cell-based; settings: Homo sapiens, 24 h, 1 day of treatment
How it was run: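 HEK293 cells carrying the STF reporter and expressing Wnt3A, seeded 2×10^4 per well overnight, then treated 1 day with compound at final 50 μM to 1.5 nM. Luciferase activity read by luminescence after Steady-Glo reagent, 10 min at room temperature.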

AsPC-1 cells = assay: Soft agar colony formation assay, AsPC-1; type: cell-based; settings: for IC50: Homo sapiens
Description: (§1) AsPC-1 cells were maintained in RPMI164 supplemented with 10% FBS, 2 mM L-glutamine and P/S (100 units/ml penicillin and 100 μg/ml streptomycin). HPAF-II cells were maintained in MEM (Eagles') supplemented with 10% FBS, 2 mM L-glutamine and P/S (100 units/ml penicillin and 100 μg/ml streptomycin). CFPAC-1 cells were maintained in Iscove MEM supplemented with 10% FBS, 2 mM L-glutamine and P/S (100 units/ml penicillin and 100 μg/ml streptomycin).
(§2) 600 μl of 0.6% agar was added to 24-well plate to form the base layer. Then a middle layer of 0.36% agar (containing 5000 cells and serially diluted compound) was added on to the base layer. Finally 500 μl of fresh growth medium was added to the top of the middle layer. The plates were incubated at 37° C. with 5% carbon dioxide in a humidified incubator for 2 weeks. Formation of colonies was observed using a light microscope. When the colony size was larger than 500 μm, 70 μl MTT (5 mg/ml) was added to each well and the plates were incubated at 37° C. for at least 2 hours. Colonies were counted with GelCount® instrument. The colony counts were plotted against compound concentrations using the GraphPad Prism software. The software was also used to perform non-linear curve fitting and calculation of compound concentration that inhibited 50% colony formation.

HPAF-II cells = assay: Soft agar colony formation assay, HPAF-II; type: cell-based; settings: for IC50: Homo sapiens
Description: as §1, §2

CFPAC-1 cells = assay: Soft agar colony formation assay, CFPAC-1; type: cell-based; settings: for IC50: Homo sapiens
Description: as §1, §2

MMTV-Wnt1 tumor = type: in vivo, BALBc mice; settings: for % T/C / % TGI / NTRD / T/C / TRD: Day 14
Description: 8-10 weeks old Female BALBc mice were anesthetised with 150 mg/kg Ketamine +75 mg/kg Xylazine. Under aseptic conditions, skin near the 4th mammary fat pad was incised, Mammary fat pad was tweaked with forceps and tumor fragment ˜2 mm^3 was implanted. The incision was closed using a tissue adhesive. Animals were randomised into groups of eight and treated daily with the test compounds for 14 days. Tumors were measured in two dimensions using calipers, and volume was calculated using the formula: Tumor Volume (mm^3)=[…]. Maximum tumor volume limit was 2000 mm^3.

mammalian PORCN = assay: PORCN-null HT1080 cells transfected with mammalian PORCN, WNT3A and STF reporter, luciferase; type: cell-based; settings: STF luciferase, FIG. 1
Description: PORCN-null HT1080 cells were transfected with mammalian or Xenopus PORCN expression plasmids, along with WNT3A, STF reporter and mCherry as transfection control. 6 hours after transfection, cells were treated with the compounds or DMSO as indicated, and the following day assayed for luciferase. Xenopus PORCN was resistant to the inhibitory effects of compounds.

Palmitoylation of Wnt3a = assay: Wnt3A palmitoylation assay (HeLa cells over-expressing V5-Wnt3a, alkyne palmitate, click chemistry); type: cell-based; settings: 100 nM compound
Description: The assay used to determine the inhibition of the palmitoylation of Wnts by compound was described by Yap et al, (Yap M C, Kostiuk M A, Martin D D, Perinpanayagam M A, Hak P G, Siddam A, Majjigapu J R, Rajaiah G, Keller B O, Prescher J A, Wu P, Bertozzi C R, Falck J R, Berthiaume L G. 2010. Rapid and selective detection of fatty acylated proteins using omega-alkynyl-fatty acids and click chemistry. J Lipid Res. 51(6):1566-1580) with some modification. 3×10^6 HeLa cells were seeded in 10 cm culture dish and incubated at 37° C. overnight. […] After six hours, the cells were washed with PBS and treated with 100 μM alkyne palmitate in medium with 5% BSA. 100 nM compound or DMSO was added and the cells were incubated overnight at 37° C. The cells were lyzed and 600 μg cell lysate was collected and incubated with anti-V5 antibody (Invitrogen) followed by the pull down of V5-Wnt3a with the addition of Protein A/G agarose beads (Thermo scientific). The pulled down lysates containing V5-Wnt3a was click-reacted with biotin-azide (Invitrogen). The biotin-labelled protein lysate was then separated on SDS-PAGE and transferred to a nitrocellulose membrane. The membrane was incubated with primary anti-V5 antibody, followed by secondary anti-mouse Dylight 680 (Thermo scientific) to detect V5-Wnt3a. […]

## O=C(CN1CCCC2=C1C(=O)N(C1CC1)C2=O)Nc1ccc(-c2cccnc2)nn1 [Compound 43, 2-(6-cyclopropyl-5,7-dioxo-2,3,4,5,6,7-hexahydro-1H-pyrrolo[3,4-b]pyridin-1-yl)-N-(6-(pyridin-3-yl)pyridazin-3-yl)acetamide]
HEK293-STF3A cells
  IC50: < 100 nM
AsPC-1 cells; AsPC-1, colony formation
  Maximum inhibition: 79%
AsPC-1 cells; ASPC1, 336 h, AsPC-1, 50% colony growth inhibition, 2 weeks, read-out: Test 1 IC50
  IC50: 4 nM
AsPC-1 cells; ASPC1, 336 h, AsPC-1, 50% colony growth inhibition, 2 weeks, read-out: Test 2 IC50
  IC50: 5 nM
AsPC-1 cells; ASPC1, AsPC-1, mean of two independent experiments, read-out: Mean IC50
  IC50: 5 nM
HPAF-II cells; 336 h, 50% colony growth inhibition, 2 weeks, read-out: Test 1 IC50
  IC50: 4 nM
HPAF-II cells; 336 h, 50% colony growth inhibition, 2 weeks, read-out: Test 2 IC50
  IC50: 2 nM
HPAF-II cells; mean of two independent experiments, read-out: Mean IC50
  IC50: 3 nM
HPAF-II cells; colony formation
  Maximum inhibition: 100%
CFPAC-1 cells; CFPAC-1, colony formation
  Maximum inhibition: 67%
CFPAC-1 cells; 336 h, CFPAC-1, 50% colony growth inhibition, 2 weeks, read-out: Test 1 IC50
  IC50: 300 nM
CFPAC-1 cells; 336 h, CFPAC-1, 50% colony growth inhibition, 2 weeks, read-out: Test 2 IC50
  IC50: 140 nM
CFPAC-1 cells; CFPAC-1, mean of two independent experiments, read-out: Mean IC50
  IC50: 220 nM
MMTV-Wnt1 tumor; 1 mg/Kg daily
  % T/C: 77.5%
  % TGI: 24%
  NTRD: 0/8
  T/C: 0.775
  TRD: 0/8
MMTV-Wnt1 tumor; 3 mg/Kg daily
  % T/C: 33.7%
  % TGI: 72%
  NTRD: 0/8
  T/C: 0.337
  TRD: 0/8
MMTV-Wnt1 tumor; 10 mg/Kg daily
  % T/C: 18.5%
  % TGI: 97%
  NTRD: 0/8
  T/C: 0.185
  TRD: 0/8
MMTV-Wnt1 tumor; daily treatment for 14 days, FIG. 2 and FIG. 3
  tumor growth in treated mice: decreased tumor growth in all the treated mice
Mammalian PORCN
  inhibition of the activity of mammalian porcupine: inhibit the activity of mammalian porcupine; also recorded: inhibition of the activity of mammalian porcupine
Palmitoylation of Wnt3a
  inhibition of palmitoylation of Wnt3a: inhibited; also recorded: inhibition of Palmitoylation of Wnt3a
